# Data from patent publication US20170216315A1 (priority 2016, published 2017).
# Marks after values point to notes of the source that are not given here.
# Legend:
# male C57BL/6 mice [1] = assay: Appearance and H&E staining of mouse liver; type: in vivo; conditions: EK100 1, 5, 10 mg/kg/day vs EtOH group
# Experimental: C-4. After “C-3” was completed, the mice were sacrificed. The weights of the mice hearts, livers, kidneys, spleens, and abdominal and epididymal fat pads were measured and recorded; the mice livers were washed with sterilized saline, and then the liver appearances were recorded by a camera. The collected organs and feces were stored at −80° C. for the following analysis (recording, sample collection and storage were conducted for all of the 8 mice from each group).
# The photographs of the mouse liver appearance of each group recorded in [Preparation Examples]
# Additionally, the photographs of stained mouse liver of each group recorded in [Preparation Examples]
# male C57BL/6 mice [2] = assay: Amounts of TAG, TC and bile acid in feces; type: in vivo; conditions: EK100 1, 5, 10 mg/kg/day vs EtOH group, feces of end of week 3, p<0.05
# catalase (CAT) = assay: Activity of CAT in mouse liver; type: in vivo, mice; conditions: for Activity of CAT: liver homogenate, alcoholic liquid diet, 4 weeks
# [3] = test system: acetaldehyde dehydrogenase (ALDH); assay: Activity of ALDH in liver homogenate; type: in vivo, mice; conditions: EK100 1, 5, 10 mg/kg/day vs control group; p<0.05; FIG. 14B
# Experimental: D-3 were analyzed. The operation steps were as follows: (i) 100 μl of liver homogenate and 1 ml of sodium pyrophosphate buffer (pH 8.8, 1 mM NAD^+, 0.2 mM 4-methylpyrazole, 1 mM MgCl2, 2 μM rotenone, 1% Triton X-100) were well mixed; the mixture was left standing in the dark at room temperature for 20 minutes; and then the absorbance (A) of the mixture was measured at 340 nm wavelength; (ii) 100 μl of liver homogenate and 1 ml of sodium pyrophosphate buffer (pH 8.8, 1 mM NAD^+, 0.2 mM 4-methylpyrazole, 1 mM MgCl2, 2 μM rotenone, 1% Triton X-100, 5 mM acetaldehyde) were well mixed; the mixture was left standing in the dark at room temperature for 20 minutes, and then the absorbance (B) of the mixture was measured at 340 nm wavelength; (iii) absorbance (A) and absorbance (B) were substituted into formula 3 below to calculate the activity of ALDH (μmole/min/mg protein).
# IL-1β = assay: Concentration of IL-1β in liver (ELISA); type: in vivo, mice; conditions: EK100 1, 5, 10 mg/kg/day vs EtOH group; p<0.05; FIG. 9B
# Source text: D-3 were taken and diluted with Calibrator Diluent RD 5-17 to ⅓ of the original concentration respectively, and then a Quantikine® Rat TNF-α or a Quantikine® Rat IL-1β commercial kit (purchased from R&D Systems company, United States) was used for the Enzyme-linked immune-sorption assay (ELISA) to measure the amounts of tumor necrosis factor-alpha (TNF-α) and interleukin-1β (IL-1β) therein. […]
# male C57BL/6 mice [4] = assay: TEAC value of liver homogenate; conditions: for TEAC value: liver homogenate, alcoholic liquid diet, 4 weeks
# CYP2E1 = assay: Protein expression of CYP2E1 in liver (western blot); type: in vivo, mice; conditions: EK100 1, 5, 10 mg/kg/day vs EtOH group, p<0.05, FIGS. 13A, 13B
# [5] = EK100 1, 5, 10 mg/kg/day vs EtOH group, p<0.05
compound,measurement,setting,value
CC(C)[C@@H](C)/C=C/[C@@H](C)[C@H]1CC[C@H]2C3=CCC4C[C@@H](O)CC[C@]4(C)C3=CC[C@]12C (stereo partly shown) [EK100],Number of fat vacuoles in liver tissue compared to EtOH,"male C57BL/6 mice [1]; H&E staining, FIGS. 7A-7E",markedly decreased
same,Whitening phenomenon of liver compared to EtOH,"male C57BL/6 mice [1]; liver appearance, FIGS. 6A-6E",decreased
same,Amount of TAG in feces compared to EtOH,male C57BL/6 mice [2]; FIG. 2C,significantly increased
same,Amount of TC in feces compared to EtOH,male C57BL/6 mice [2]; FIG. 2C,significantly increased
same,Amount of bile acid in feces compared to EtOH,male C57BL/6 mice [2]; FIG. 3,significantly increased
same,Activity of CAT in liver compared to EtOH,catalase (CAT); [5],significantly increased
same,Activity of CAT,catalase (CAT); EK100_1X: 1 mg/kg/day gavage,175.80 ± 6.89^a unit/mg protein
same,Activity of CAT,catalase (CAT); EK100_5X: 5 mg/kg/day gavage,145.43 ± 5.77^b unit/mg protein
same,Activity of CAT,catalase (CAT); EK100_10X: 10 mg/kg/day gavage,137.16 ± 6.79^bc unit/mg protein
same,Activity of ALDH in liver compared to control,[3],significantly increased
same,Concentration of IL-1β in liver compared to EtOH,IL-1β,significantly decreased
same,TEAC value of liver compared to EtOH,male C57BL/6 mice [4]; [5],significantly increased
same,TEAC value,male C57BL/6 mice [4]; EK100_1X: 1 mg/kg/day gavage,69.18 ± 2.77^a nmol/mg protein
same,TEAC value,male C57BL/6 mice [4]; EK100_5X: 5 mg/kg/day gavage,75.23 ± 2.61^a nmol/mg protein
same,TEAC value,male C57BL/6 mice [4]; EK100_10X: 10 mg/kg/day gavage,70.50 ± 2.25^a nmol/mg protein
same,Protein expression of CYP2E1 in liver compared to EtOH,CYP2E1,significantly decreased
